Patent publication US12116343B2, “Inhibitors of APOL1 and methods of using same” (Vertex Pharmaceuticals Incorporated, priority 2020, dated 2024)
Like-named read-outs stand apart in the source and are kept apart here.

Biological target: T1, APOL1 G1 Protein (Homo sapiens, UniProt O14791, I384M/S342G)
T1 sequence (O14791 28-398 S342G/I384M): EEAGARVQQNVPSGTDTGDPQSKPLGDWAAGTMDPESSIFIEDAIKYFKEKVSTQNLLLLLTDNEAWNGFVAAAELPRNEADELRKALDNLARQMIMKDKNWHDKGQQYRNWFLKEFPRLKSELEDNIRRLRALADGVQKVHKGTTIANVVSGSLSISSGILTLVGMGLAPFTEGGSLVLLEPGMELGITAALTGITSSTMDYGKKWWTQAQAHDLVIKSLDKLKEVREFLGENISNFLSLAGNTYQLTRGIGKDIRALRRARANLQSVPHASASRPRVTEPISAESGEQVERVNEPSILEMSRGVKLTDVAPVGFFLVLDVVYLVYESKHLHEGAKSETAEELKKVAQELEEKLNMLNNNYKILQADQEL
Assay: Trypanosoma brucei brucei lysis assay using APOL1 recombinant protein (AlamarBlue viability)
Assay type: cell-based
How it was run: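 Bloodstream-form T. b. brucei Lister 427 VSG 221, 120,000 parasites/well in phenol red-free, FBS-free medium, lysed by recombinant APOL1 G1 with compound (10-point dose response, 0.1% DMSO final). Viability read by AlamarBlue fluorescence against a parasite standard curve.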

[1] = Trypanosoma brucei brucei lysis, recombinant APOL1, AlamarBlue, read-out: Trypanosoma Assay (IC50)
[2] = Table 24, Compounds 287 to 465, read-out: Trypanosoma Assay (IC50)

| Compound | IC50 [1] | also measured |
| --- | --- | --- |
| Cn1cnc(CNC(=O)[C@H]2C[C@H](c3c(-c4ccc(F)cc4)[nH]c4c(F)cc(F)cc43)C2)c1 [Compound 48] | < 250 nM | – |
| CCOCC1(CNC(=O)[C@H]2C[C@H](c3c(-c4ccc(F)cc4)[nH]c4c(F)cc(F)cc43)C2)CC1 [Compound 55] | > 1000 nM | – |
| CC(N)(C(=O)NC(=O)[C@H]1C[C@H](c2c(-c3ccc(F)cc3)[nH]c3c(F)cc(F)cc32)C1)C(F)(F)F (stereo partly shown) [Compound 60] | 250 to 1000 nM | – |
| CC(=O)NC1CCCN(C(=O)[C@H]2C[C@H](c3c(-c4ccc(F)cc4)[nH]c4c(F)cc(F)cc43)C2)C1 (stereo partly shown) [Compound 91] | > 1000 nM | – |
| CC(NC(=O)[C@H]1C[C@H](c2c(-c3ccc(F)cc3)[nH]c3c(F)cc(F)cc32)C1)c1ccn[nH]1 (mixture of isomers) [Compound 81] | 250 to 1000 nM | – |
| NC(=O)[C@@H]1CCCN1C(=O)[C@H]1C[C@H](c2c(-c3ccc(F)cc3)[nH]c3c(F)cc(F)cc32)C1 [Compound 88] | > 1000 nM | – |
| NCC(O)CNC(=O)[C@H]1C[C@H](c2c(-c3ccc(F)cc3)[nH]c3c(F)cc(F)cc32)C1 (stereo partly shown) [Compound 3] | 250 to 1000 nM | – |
| O=C([C@H]1C[C@H](c2c(-c3ccc(F)cc3)[nH]c3c(F)cc(F)cc32)C1)N1CCC(O)(O)CC1 [Compound 127] | – | IC50 (Trypanosoma Assay (IC50), Trypanosoma brucei brucei lysis, recombinant APOL1, AlamarBlue): 250 to 1000 nM |
| CC(NC(=O)[C@H]1C[C@H](c2c(-c3ccc(F)cc3)[nH]c3c(F)cc(F)cc32)C1)c1ccn(C)n1 (mixture of isomers) [Compound 75] | < 250 nM | – |
| CC1(O)CN(C(=O)[C@H]2C[C@H](c3c(-c4ccc(F)cc4)[nH]c4c(F)cc(F)cc43)C2)C1 [Compound 74] | 250 to 1000 nM | – |
| O=C(NCCO)[C@H]1C[C@H](c2c(-c3ccc(F)cc3)[nH]c3c(F)cc(F)cc32)C1 [Compound 46, 3-[5,7-difluoro-2-(4-fluorophenyl)-1H-indol-3-yl]-N-(2-hydroxyethyl)cyclobutanecarboxamide] | < 250 nM | – |
| NC(=O)C1(NC(=O)[C@H]2C[C@H](c3c(-c4ccc(F)cc4)[nH]c4c(F)cc(F)cc43)C2)CC1 [Compound 56] | 250 to 1000 nM | – |
| O=C([C@H]1C[C@H](c2c(-c3ccc(F)cc3)[nH]c3c(F)cc(F)cc32)C1)N1CCCCC1CCO (stereo partly shown) [Compound 94] | > 1000 nM | – |
| O=C([C@H]1C[C@H](c2c(-c3ccc(F)cc3)[nH]c3c(F)cc(F)cc32)C1)N(CCO)C1CC1 [Compound 52] | 250 to 1000 nM | – |
| CC(NC(=O)[C@H]1C[C@H](c2c(-c3ccc(F)cc3)[nH]c3c(F)cc(F)cc32)C1)c1ccnn1C (mixture of isomers) [Compound 76] | > 1000 nM | – |
| Cn1ccc(CNC(=O)[C@H]2C[C@H](c3c(-c4ccc(F)cc4)[nH]c4c(F)cc(F)cc43)C2)n1 [Compound 71] | < 250 nM | – |
| CN1CCN(C(=O)CNC(=O)[C@H]2C[C@H](c3c(-c4ccc(F)cc4)[nH]c4c(F)cc(F)cc43)C2)CC1 [Compound 67] | > 1000 nM | – |
| O=C1NCC[C@H]1NC(=O)[C@H]1C[C@H](c2c(-c3ccc(F)cc3)[nH]c3c(F)cc(F)cc32)C1 [Compound 45] | < 250 nM | – |
| O=C(NCC1(O)CCCCC1)[C@H]1C[C@H](c2c(-c3ccc(F)cc3)[nH]c3c(F)cc(F)cc32)C1 [Compound 80] | > 1000 nM | – |
| O=C(NC(CO)CF)[C@H]1C[C@H](c2c(-c3ccc(F)cc3)[nH]c3c(F)cc(F)cc32)C1 (stereo partly shown) [Compound 78] | < 250 nM | – |

| Compound | IC50 [1] | also measured |
| --- | --- | --- |
| COCC1(NC(=O)[C@H]2C[C@H](c3c(-c4ccc(F)cc4)[nH]c4c(F)cc(F)cc43)C2)CC1 [Compound 54] | < 250 nM | – |
| NC(=O)CC1CC(c2c(-c3ccc(F)cc3)[nH]c3c(F)cc(F)cc23)C1 (stereo not shown) [Compound 455] | – | IC50 [2]: < 250 nM |
| CC(C)(O)C1CN(C(=O)[C@H]2C[C@H](c3c(-c4ccc(F)cc4)[nH]c4c(F)cc(F)cc43)C2)C1 [Compound 86] | > 1000 nM | – |
| CN(C(=O)[C@H]1C[C@H](c2c(-c3ccc(F)cc3)[nH]c3c(F)cc(F)cc32)C1)C1(CO)CC1 [Compound 58] | 250 to 1000 nM | – |
| O=C(NC1(CCO)CC1)[C@H]1C[C@H](c2c(-c3ccc(F)cc3)[nH]c3c(F)cc(F)cc32)C1 [Compound 59] | 250 to 1000 nM | – |
| C[C@H](O)CNC(=O)[C@H]1C[C@H](c2c(-c3ccc(F)cc3)[nH]c3c(F)cc(F)cc32)C1 [Compound 82] | 250 to 1000 nM | – |
| Cc1cc(CNC(=O)[C@H]2C[C@H](c3c(-c4ccc(F)cc4)[nH]c4c(F)cc(F)cc43)C2)nn1C [Compound 73] | 250 to 1000 nM | – |
| O=C(CNC(=O)[C@H]1C[C@H](c2c(-c3ccc(F)cc3)[nH]c3c(F)cc(F)cc32)C1)NC1CC1 [Compound 50] | > 1000 nM | – |
| NC(=O)C1CCCCN1C(=O)[C@H]1C[C@H](c2c(-c3ccc(F)cc3)[nH]c3c(F)cc(F)cc32)C1 (stereo partly shown) [Compound 92] | 250 to 1000 nM | – |
| O=C(NCC1CC(F)(F)C1)[C@H]1C[C@H](c2c(-c3ccc(F)cc3)[nH]c3c(F)cc(F)cc32)C1 [Compound 41] | > 1000 nM | – |
| C[C@@H](NC(=O)[C@H]1C[C@H](c2c(-c3ccc(F)cc3)[nH]c3c(F)cc(F)cc32)C1)C(=O)N(C)C [Compound 61] | > 1000 nM | – |
| O=C(NCC1(O)CCCC1)[C@H]1C[C@H](c2c(-c3ccc(F)cc3)[nH]c3c(F)cc(F)cc32)C1 [Compound 69] | > 1000 nM | – |
| NC(=O)CNC[C@H]1C[C@@H](c2c(-c3ccc(F)cc3)[nH]c3c(F)cc(F)cc32)C1 [Compound 447] | – | IC50 [2]: < 250 nM |
| O=C([C@H]1C[C@H](c2c(-c3ccc(F)cc3)[nH]c3c(F)cc(F)cc32)C1)N1C[C@@H](CO)OCC12CC2 [Compound 57] | > 1000 nM | – |
| O=C1CC(NC(=O)[C@H]2C[C@H](c3c(-c4ccc(F)cc4)[nH]c4c(F)cc(F)cc43)C2)CN1 (mixture of isomers) [Compound 44] | > 1000 nM | – |
| CCNC(=O)[C@@H]1CCCN1C(=O)[C@H]1C[C@H](c2c(-c3ccc(F)cc3)[nH]c3c(F)cc(F)cc32)C1 [Compound 64] | > 1000 nM | – |
| CN(CC(C)(C)O)C(=O)[C@H]1C[C@H](c2c(-c3ccc(F)cc3)[nH]c3c(F)cc(F)cc32)C1 [Compound 93] | > 1000 nM | – |
| COCc1cc(CNC(=O)[C@H]2C[C@H](c3c(-c4ccc(F)cc4)[nH]c4c(F)cc(F)cc43)C2)n[nH]1 [Compound 72] | > 1000 nM | – |
| CN(CC1(CO)CC1)C(=O)[C@H]1C[C@H](c2c(-c3ccc(F)cc3)[nH]c3c(F)cc(F)cc32)C1 [Compound 49] | > 1000 nM | – |
| CN1CC(CNC(=O)[C@H]2C[C@H](c3c(-c4ccc(F)cc4)[nH]c4c(F)cc(F)cc43)C2)CC1=O (stereo partly shown) [Compound 70] | > 1000 nM | – |

| Compound | IC50 [1] | also measured |
| --- | --- | --- |
| CN(C)C(=O)CN(C)C(=O)[C@H]1C[C@H](c2c(-c3ccc(F)cc3)[nH]c3c(F)cc(F)cc32)C1 [Compound 62] | > 1000 nM | – |
| COCC1(CNC(=O)[C@H]2C[C@H](c3c(-c4ccc(F)cc4)[nH]c4c(F)cc(F)cc43)C2)CC1 [Compound 53] | > 1000 nM | – |
| CC(NC(=O)[C@H]1C[C@H](c2c(-c3ccc(F)cc3)[nH]c3c(F)cc(F)cc32)C1)C(N)=O (mixture of isomers) [Compound 68] | 250 to 1000 nM | – |
| O=C(OC1CN(C(=O)[C@H]2C[C@H](c3c(-c4ccc(F)cc4)[nH]c4c(F)cc(F)cc43)C2)C1)C1CCOCC1 [Compound 85] | < 250 nM | – |
| NC(=O)CNCC1CC(c2c(-c3ccc(F)cc3)[nH]c3c(F)cc(F)cc23)C1 (stereo not shown) [Compound 433, 2-(((3-(5,7-difluoro-2-(4-fluorophenyl)-1H-indol-3-yl)cyclobutyl)methyl)amino)acetamide] | – | IC50 [2]: < 250 nM |
| CC1C[C@H](NC(=O)[C@H]2C[C@H](c3c(-c4ccc(F)cc4)[nH]c4c(F)cc(F)cc43)C2)C(=O)N1 (mixture of isomers) [Compound 84] | 250 to 1000 nM | – |
| CN(CCO)C(=O)[C@H]1C[C@H](c2c(-c3ccc(F)cc3)[nH]c3c(F)cc(F)cc32)C1 [Compound 79] | < 250 nM | – |
| O=C1NCCC1NC(=O)[C@H]1C[C@H](c2c(-c3ccc(F)cc3)[nH]c3c(F)cc(F)cc32)C1 (stereo partly shown) [Compound 2] | < 250 nM | – |
| CC(C)N1CCN(C(=O)[C@H]2C[C@H](c3c(-c4ccc(F)cc4)[nH]c4c(F)cc(F)cc43)C2)CC1=O [Compound 63] | > 1000 nM | – |
| NC(=O)CNC(=O)[C@H]1C[C@H](c2c(-c3ccc(F)cc3)[nH]c3c(F)cc(F)cc32)C1 [Compound 1, N-(2-amino-2-oxo-ethyl)-3-[5,7-difluoro-2-(4-fluorophenyl)-1H-indol-3-yl]cyclobutanecarboxamide] | < 250 nM | – |
| CN(CC(N)=O)C(=O)[C@H]1C[C@H](c2c(-c3ccc(F)cc3)[nH]c3c(F)cc(F)cc32)C1 [Compound 51] | 250 to 1000 nM | – |
| CC(C)(NC(=O)[C@H]1C[C@H](c2c(-c3ccc(F)cc3)[nH]c3c(F)cc(F)cc32)C1)C(=O)N1CCOCC1 [Compound 66] | > 1000 nM | – |
| O=C(NCC1CCOCC1)[C@H]1C[C@H](c2c(-c3ccc(F)cc3)[nH]c3c(F)cc(F)cc32)C1 [Compound 42] | > 1000 nM | – |
| O=C(NCC1(CO)COC1)[C@H]1C[C@H](c2c(-c3ccc(F)cc3)[nH]c3c(F)cc(F)cc32)C1 [Compound 83] | > 1000 nM | – |
| NCCCNC(=O)[C@H]1C[C@H](c2c(-c3ccc(F)cc3)[nH]c3c(F)cc(F)cc32)C1 [Compound 4] | < 250 nM | – |
| CC(O)CN(C)C(=O)[C@H]1C[C@H](c2c(-c3ccc(F)cc3)[nH]c3c(F)cc(F)cc32)C1 (stereo partly shown) [Compound 90] | 250 to 1000 nM | – |
| C[C@H](NC(=O)[C@H]1C[C@H](c2c(-c3ccc(F)cc3)[nH]c3c(F)cc(F)cc32)C1)C(=O)N(C)C [Compound 65] | 250 to 1000 nM | – |
| O=C([C@H]1C[C@H](c2c(-c3ccc(F)cc3)[nH]c3c(F)cc(F)cc32)C1)N1CCC(O)(CO)CC1 [Compound 87] | > 1000 nM | – |
